# From PubChem BioAssay AID1259407 (Chemical Carcinogenesis Research Information System (CCRIS), 2018)
# The source made the active and inactive calls. No rule for the calls is given here.
# Tested on: CCRIS mutagenicity, Ames/micronucleus/aberration tests
# Assay: CCRIS mutagenicity studies
structure (smiles),measurement,setting,value
COS(C)(=O)=O,mutagenic call,"End Point: IN VITRO MICRONUCLEUS, Test System: CHINESE HAMSTER OVARY CELLS, Metabolic Activation: NONE",active; positive
same,mutagenic call,"End Point: IN VITRO MICRONUCLEUS, Test System: CHL/IU CELLS, Metabolic Activation: NONE",active; positive
same,mutagenic call,"End Point: IN VITRO MICRONUCLEUS, Test System: CHO CELLS, Metabolic Activation: RAT, LIVER, S-9, AROCLOR 1254",active; positive
same,mutagenic call,"End Point: IN VITRO MICRONUCLEUS, Test System: HUMAN FIBROBLASTS VH25 CELLS, Metabolic Activation: NONE",active; positive
same,mutagenic call,"End Point: IN VITRO MICRONUCLEUS, Test System: MOUSE LYMPHOMA L5178Y CELLS, Metabolic Activation: NONE",active; positive
same,mutagenic call,"End Point: IN VIVO MICRONUCLEUS, Test System: BONE MARROW POLYCHROMATIC ERYTHROCYTES, Species: MOUSE, Strain/Sex: SWISS/FEMALE, Route: IP",active; positive
same,mutagenic call,"End Point: IN VIVO MICRONUCLEUS, Test System: HEPATOCYTES, Species: RAT, Strain/Sex: FISHER 344 OR SD/MALE, Route: ORAL OR IP",inactive; negative
same,mutagenic call,"End Point: IN VIVO MICRONUCLEUS, Test System: PERIPHERAL BLOOD RETICULOCYTES, Species: RAT, Strain/Sex: FISHER 344 OR SD/MALE, Route: ORAL OR IP",active; positive
same,mutagenic call,"End Point: In vitro micronucleus, Test System: Chinese hamster ovary (CHO) cells, Metabolic Activation: None","active; positive (lycopene (10, 25 and 50 um) significantly reduced the number of micron"
same,mutagenic call,"End Point: In vitro micronucleus, Test System: Chinese hamster ovary (CHO-WBL) cells, Metabolic Activation: None",active; positive (p<0.01)
same,mutagenic call,"Test System: AMES SALMONELLA TYPHIMURIUM, Strain/Indicator: TA97, Metabolic Activation: NONE, Method: STANDARD PLATE",active; positive
same,mutagenic call,"Test System: AMES SALMONELLA TYPHIMURIUM, Strain/Indicator: TA97, Metabolic Activation: RAT, LIVER, S-9, AROCLOR 1254, Method: STANDARD PLATE",inactive; negative
same,mutagenic call,"Test System: AMES SALMONELLA TYPHIMURIUM, Strain/Indicator: TA98, Metabolic Activation: NONE, Method: STANDARD PLATE",inactive; negative
same,mutagenic call,"Test System: AMES SALMONELLA TYPHIMURIUM, Strain/Indicator: TA98, Metabolic Activation: RAT, LIVER, S-9, AROCLOR 1254, Method: STANDARD PLATE",inactive; negative
same,mutagenic call,"Test System: AMES SALMONELLA TYPHIMURIUM, Strain/Indicator: TA100, Metabolic Activation: NONE, Method: STANDARD PLATE",active; positive
same,mutagenic call,"Test System: AMES SALMONELLA TYPHIMURIUM, Strain/Indicator: TA100, Metabolic Activation: RAT, LIVER, S-9, AROCLOR 1254, Method: STANDARD PLATE",inactive; negative
same,mutagenic call,"Test System: AMES SALMONELLA TYPHIMURIUM, Strain/Indicator: TA1535, Metabolic Activation: NONE, Method: STANDARD PLATE",active; positive
same,mutagenic call,"Test System: AMES SALMONELLA TYPHIMURIUM, Strain/Indicator: YG7100, Metabolic Activation: NONE, Method: PREINCUBATION",inactive; negative
same,mutagenic call,"Test System: AMES SALMONELLA TYPHIMURIUM, Strain/Indicator: YG7104, Metabolic Activation: NONE, Method: PREINCUBATION",active; positive
same,mutagenic call,"Test System: AMES SALMONELLA TYPHIMURIUM, Strain/Indicator: YG7108, Metabolic Activation: NONE, Method: PREINCUBATION",active; positive
same,mutagenic call,"Test System: AMES SALMONELLA TYPHIMURIUM, Strain/Indicator: YG7112, Metabolic Activation: NONE, Method: PREINCUBATION",active; positive
same,mutagenic call,"Test System: AMES SALMONELLA TYPHIMURIUM, Strain/Indicator: YG7113, Metabolic Activation: NONE, Method: PREINCUBATION",active; positive
same,mutagenic call,"Test System: AMES SALMONELLA TYPHIMURIUM, Strain/Indicator: YG7119, Metabolic Activation: NONE, Method: PREINCUBATION",active; positive
same,mutagenic call,"Test System: CHINESE HAMSTER OVARY, Strain/Indicator: CHO-K1-BH4 (HGPRT)/6-THIOGUANINE, Metabolic Activation: NONE, Method: SUSPENSION/PLATE",active; positive
same,mutagenic call,"Test System: CHINESE HAMSTER OVARY, Strain/Indicator: CHO-K1-BH4 (HGPRT), Metabolic Activation: NONE, Method: MONOLAYER",active; positive
same,mutagenic call,"Test System: CHINESE HAMSTER OVARY, Strain/Indicator: CHO-K1-BH4 (HGPRT), Metabolic Activation: NONE, Method: SUSPENSION/PLATE",active; positive
same,mutagenic call,"Test System: CHINESE HAMSTER V-79, Strain/Indicator: V-79/6-THIOGUANINE, Metabolic Activation: NONE, Method: FLASK ASSAY",active; positive
same,mutagenic call,"Test System: CHINESE HAMSTER V-79, Strain/Indicator: V-79/6-THIOGUANINE, Metabolic Activation: NONE, Method: STANDARD PLATE",active; positive
same,mutagenic call,"Test System: CHINESE HAMSTER V-79, Strain/Indicator: V-79/6-THIOGUANINE, Metabolic Activation: NONE, Method: SUSPENSION/PLATE",active; positive
same,mutagenic call,"Test System: CHINESE HAMSTER V-79, Strain/Indicator: V-79/8-AZAGUANINE, Metabolic Activation: NONE, Method: STANDARD PLATE",active; positive
same,mutagenic call,"Test System: CHINESE HAMSTER V-79, Strain/Indicator: V-79/OUABAIN, Metabolic Activation: NONE, Method: STANDARD PLATE",active; positive
same,mutagenic call,"Test System: CHINESE HAMSTER V-79, Strain/Indicator: V-79/OUABAIN, Metabolic Activation: NONE, Method: SUSPENSION/PLATE",inactive; negative
same,mutagenic call,"Test System: CHO/HGPRT, Strain/Indicator: CHO-K1-BH4, Metabolic Activation: NONE, Method: STANDARD PLATE",active; positive
same,mutagenic call,"Test System: E. COLI, Strain/Indicator: TK701 (PKM101), Metabolic Activation: NONE, Method: STANDARD PLATE",active; positive
same,mutagenic call,"Test System: E. COLI, Strain/Indicator: TK701, Metabolic Activation: NONE, Method: STANDARD PLATE",active; positive
same,mutagenic call,"Test System: E. COLI, Strain/Indicator: TK702 (PKM101), Metabolic Activation: NONE, Method: STANDARD PLATE",active; positive
same,mutagenic call,"Test System: E. COLI, Strain/Indicator: TK702, Metabolic Activation: NONE, Method: STANDARD PLATE",inactive; negative
same,mutagenic call,"Test System: E. COLI, Strain/Indicator: WP2, Metabolic Activation: NONE, Method: FLUCTUATION",active; positive
same,mutagenic call,"Test System: E. COLI, Strain/Indicator: WP2, Metabolic Activation: NONE, Method: PREINCUBATION",active; positive
same,mutagenic call,"Test System: E. COLI, Strain/Indicator: WP2, Metabolic Activation: NONE, Method: STANDARD PLATE",active; positive
same,mutagenic call,"Test System: E. COLI, Strain/Indicator: WP2 UVRA, Metabolic Activation: HAMSTER, LIVER, S-9, AROCLOR 1254, Method: STANDARD PLATE",active; positive
same,mutagenic call,"Test System: E. COLI, Strain/Indicator: WP2 UVRA, Metabolic Activation: HAMSTER, LIVER, S-9, Method: STANDARD PLATE",active; positive
same,mutagenic call,"Test System: E. COLI, Strain/Indicator: WP2 UVRA, Metabolic Activation: MOUSE, LIVER, S-9, AROCLOR 1254, Method: STANDARD PLATE",active; positive
same,mutagenic call,"Test System: E. COLI, Strain/Indicator: WP2 UVRA, Metabolic Activation: MOUSE, LIVER, S-9, Method: STANDARD PLATE",active; positive
same,mutagenic call,"Test System: E. COLI, Strain/Indicator: WP2 UVRA, Metabolic Activation: NONE, Method: FLUCTUATION",active; positive
same,mutagenic call,"Test System: E. COLI, Strain/Indicator: WP2 UVRA, Metabolic Activation: NONE, Method: PREINCUBATION",active; positive
same,mutagenic call,"Test System: E. COLI, Strain/Indicator: WP2 UVRA, Metabolic Activation: RAT, LIVER, S-9, AROCLOR 1254, Method: STANDARD PLATE",active; positive
same,mutagenic call,"Test System: E. COLI, Strain/Indicator: WP2 UVRA, Metabolic Activation: RAT, LIVER, S-9, Method: STANDARD PLATE",active; positive
same,mutagenic call,"Test System: MOUSE LYMPHOMA, Strain/Indicator: L5178Y (TK+/TK-), Metabolic Activation: NONE, Method: SUSPENSION/PLATE",active; positive
same,mutagenic call,"Test System: MOUSE LYMPHOMA, Strain/Indicator: L5178Y (TK+/TK-), Metabolic Activation: RAT, LIVER, S-9, AROCLOR 1254, Method: SUSPENSION/PLATE",active; positive
same,mutagenic call,"Test System: UDS HUMAN CELLS, Strain/Indicator: THY INCORP (NON-S-PHASE), Metabolic Activation: NONE, Method: AUTORADIOGRAPHY",active; positive
same,mutagenic call,"Test System: UDS HUMAN CELLS, Strain/Indicator: THY INCORP (NON-S-PHASE), Metabolic Activation: NONE, Method: LIQUID SCINTILLATION COUNTING",active; positive
same,mutagenic call,"Test System: UDS HUMAN KERATINOCYTES, Strain/Indicator: THY INCORP, Metabolic Activation: NONE, Method: AUTORADIOGRAPHY",active; positive
same,mutagenic call,"Test System: UDS HUMAN LYMPHOCYTES, Strain/Indicator: THY INCORP (NON-S-PHASE), Metabolic Activation: NONE, Method: LIQUID SCINTILLATION COUNTING",active; positive
same,mutagenic call,"Test System: UDS MONKEY HEPATOCYTES, Strain/Indicator: THY INCORP, Metabolic Activation: AROCLOR 1254, Method: AUTORADIOGRAPHY",active; positive
same,mutagenic call,"Test System: UDS MONKEY HEPATOCYTES, Strain/Indicator: THY INCORP, Metabolic Activation: NONE, Method: AUTORADIOGRAPHY",active; positive
same,mutagenic call,"Test System: UDS RAT HEPATOCYTES, Strain/Indicator: BROMODEOXYURIDINE INCORP, Metabolic Activation: NONE, Method: FLOW CYTOMETRIC ANALYSIS",active; positive
same,mutagenic call,"Test System: UDS RAT HEPATOCYTES, Strain/Indicator: THY INCORP, Metabolic Activation: NONE, Method: AUTORADIOGRAPHY",active; positive
same,mutagenic call,"Test System: UDS RAT PACHYTENE SPERMATOCYTES, Strain/Indicator: THY INCORP, Metabolic Activation: NONE, Method: LIQUID SCINTILLATION COUNTING",active; positive
same,mutagenic call,"Test System: UDS RODENT CELLS, Strain/Indicator: THY INCORP (NON-S-PHASE), Metabolic Activation: NONE, Method: AUTORADIOGRAPHY",active; positive
same,mutagenic call,"Test System: UDS RODENT CELLS, Strain/Indicator: THY INCORP (NON-S-PHASE), Metabolic Activation: NONE, Method: LIQUID SCINTILLATION COUNTING",active; positive
same,mutagenic call,"Test System: UDS RODENT HEPATOCYTES, Strain/Indicator: THY INCORP (NON-S-PHASE), Method: AUTORADIOGRAPHY",active; positive
same,mutagenic call,"Test System: UDS RODENT HEPATOCYTES, Strain/Indicator: THY INCORP (NON-S-PHASE), Method: LIQUID SCINTILLATION COUNTING",active; positive
same,mutagenic call,"Test System: UDS RODENT PRIMARY CELLS, Strain/Indicator: THY INCORP (NON-S-PHASE), Metabolic Activation: NONE, Method: LIQUID SCINTILLATION COUNTING",active; positive
same,mutagenic call,"Test System: UDS, Strain/Indicator: HEPG2/THYMIDINE INCORPORATION, Metabolic Activation: NONE, Method: AUTORADIOGRAPHY",active; positive
